Measured values: ChEMBL document CHEMBL4513161, “CO-ADD screening of MMV (CH) - Pandemic Response Box” (2021)
≈ marks a conversion by molar mass, not a printed value.

What was measured:
[1] = test system: HEK293; assay: cells; format: functional, Homo sapiens, ATCC CRL1573
[2] = test system: Pseudomonas aeruginosa; assay: Antibacterial activity against Pseudomonas aeruginosa PAO397 [PAO1 d(mexAB-oprM) d(mexCD-oprJ) d(mexEF-oprN) d(mexJKL) d(mexXY) d(opmH)] (CO-ADD:GN_211); MIC in CAMBH media using NBS plates, by OD(600); format: functional; settings: ASSAY_TEST Inhibition of Bacterial Growth, detection method Absorption (OD600), MEDIA CAMHB, plate type 384well, CORNING #3640, time 18 hr
[3] = test system: Staphylococcus aureus; settings: ASSAY_TEST Inhibition of Bacterial Growth; detection method Absorption (OD600); MEDIA CAMHB; plate type 384well; NBS; CORNING #3640; time 18 hr
Description: (§1) Antibacterial activity against Staphylococcus aureus MRSA ATCC 43300 (CO-ADD:GP_020); MIC in CAMBH media, using NBS plates, by OD(600)

[4] = test system: Escherichia coli; settings: ASSAY_TEST Inhibition of Bacterial Growth; detection method Absorption (OD600); MEDIA CAMHB; plate type 384well; NBS; CORNING #3640; time 18 hr
Description: (§2) Antibacterial activity against Escherichia coli ATCC 25922 (CO-ADD:GN_001); MIC in CAMBH media using NBS plates, by OD(600)

[5] = test system: Klebsiella pneumoniae; settings: ASSAY_TEST Inhibition of Bacterial Growth; detection method Absorption (OD600); MEDIA CAMHB; plate type 384well; NBS; CORNING #3640; time 18 hr
Description: (§3) Antibacterial activity against Klebsiella pneumoniae MDR ATCC 70063 (CO-ADD:GN_003); MIC in CAMBH media using NBS plates, by OD(600)

[6] = test system: Pseudomonas aeruginosa; settings: ASSAY_TEST Inhibition of Bacterial Growth; detection method Absorption (OD600); MEDIA CAMHB; plate type 384well; NBS; CORNING #3640; time 18 hr
Description: (§4) Antibacterial activity against Pseudomonas aeruginosa ATCC 27853 (CO-ADD:GN_042); MIC in CAMBH media using NBS plates, by OD(600)

[7] = test system: Acinetobacter baumannii; settings: ASSAY_TEST Inhibition of Bacterial Growth; detection method Absorption (OD600); MEDIA CAMHB; plate type 384well; NBS; CORNING #3640; time 18 hr
Description: (§5) Antibacterial activity against Acinetobacter baumannii ATCC 19606 (CO-ADD:GN_034); MIC in CAMBH media using NBS plates, by OD600

[8] = test system: Candida albicans; settings: ASSAY_TEST Inhibition of Fungal Growth; detection method Absorption (OD530); plate type 384well; NBS; CORNING #3640
Description: (§6) Antifungal activity against Candida albicans ATCC 90028 (CO-ADD:FG_001); MIC in YNB media using NBS plates, by OD630

[9] = test system: Cryptococcus neoformans
Description: Antifungal activity against Cryptococcus neoformans H99 ATCC 208821 (CO-ADD:FG_002); MIC in YNB media using NBS plates, by Resazurin OD(600-570)

[10] = test system: Staphylococcus aureus; assay: microbe, parasite or virus in culture; settings: ATCC 43300, 18 h, ASSAY_TEST Inhibition of Bacterial Growth, detection method Absorption (OD600), MEDIA CAMHB, plate type 384well, NBS, CORNING #3640
Description: as §1

[11] = test system: Escherichia coli; assay: microbe, parasite or virus in culture; settings: ATCC 25922, 18 h, ASSAY_TEST Inhibition of Bacterial Growth, detection method Absorption (OD600), MEDIA CAMHB, plate type 384well, NBS, CORNING #3640
Description: as §2

[12] = test system: Klebsiella pneumoniae; assay: microbe, parasite or virus in culture; settings: ATCC 700603, 18 h, ASSAY_TEST Inhibition of Bacterial Growth, detection method Absorption (OD600), MEDIA CAMHB, plate type 384well, NBS, CORNING #3640
Description: as §3

[13] = test system: Pseudomonas aeruginosa; assay: microbe, parasite or virus in culture; settings: ATCC 27853, 18 h, ASSAY_TEST Inhibition of Bacterial Growth, detection method Absorption (OD600), MEDIA CAMHB, plate type 384well, NBS, CORNING #3640
Description: as §4

[14] = test system: Acinetobacter baumannii; assay: microbe, parasite or virus in culture; settings: ATCC 19606, 18 h, ASSAY_TEST Inhibition of Bacterial Growth, detection method Absorption (OD600), MEDIA CAMHB, plate type 384well, NBS, CORNING #3640
Description: as §5

[15] = test system: Candida albicans; assay: microbe, parasite or virus in culture; settings: ATCC 90028, ASSAY_TEST Inhibition of Fungal Growth, detection method Absorption (OD530), plate type 384well, NBS, CORNING #3640
Description: as §6

[16] = Homo sapiens, ATCC CRL1573, HEK293, ASSAY_TEST Inhibition of Cell Viability, detection method Resazurin, Fluorescence (ex560/em590), MEDIA DMEM with 10% FBS, plate type 384well, TC, CORNING #3712, time 18 hr, read-out: CC50
[17] = ASSAY_TEST Inhibition of Cell Viability, detection method Resazurin, Fluorescence (ex560/em590), MEDIA DMEM with 10% FBS, plate type 384well, TC, CORNING #3712, time 18 hr, read-out: CC50

SMILES | CC50 [1, 16] | MIC [2] | MIC [3] | MIC [4] | MIC [5] | MIC [6] | MIC [7] | MIC [8] | MIC [9] | CC50 [1, 17] | CC50 ([1]; Homo sapiens, ATCC CRL1573, HEK293, 18 h) | MIC [10] | MIC [11] | MIC [12] | MIC [13] | MIC [14] | MIC [15]
Nc1nc(=O)[nH]cc1F [FLUCYTOSINE] | > 20 µM | > 20 µM | >20 µM | >20 µM | >20 µM | >20 µM | >20 µM | 1.25 µM (≈ 0.161 µg/mL) | 1.25 µM (≈ 0.161 µg/mL) | – | – | – | – | – | – | – | –
CCC(C)n1ncn(-c2ccc(N3CCN(c4ccc(OCC5COC(Cn6cncn6)(c6ccc(Cl)cc6Cl)O5)cc4)CC3)cc2)c1=O (configuration not stated) [ITRACONAZOLE] | > 20 µM | > 20 µM | >20 µM | >20 µM | >20 µM | >20 µM | >20 µM | <=0.1562 uM | ≤ 0.156 µM | – | – | – | – | – | – | – | –
CC(C)/N=c1\cc2n(-c3ccc(Cl)cc3)c3ccccc3nc-2cc1Nc1ccc(Cl)cc1 [CLOFAZIMINE] | > 20 µM | > 20 µM | 20 µM (≈ 9.47 µg/mL) | >20 µM | >20 µM | >20 µM | >20 µM | >20 µM | > 20 µM | – | – | – | – | – | – | – | –
O=c1[nH]cnc2c1ncn2[C@H]1CC[C@@H](CO)O1 [DIDANOSINE] | > 20 µM | > 20 µM | >20 µM | >20 µM | >20 µM | >20 µM | >20 µM | >20 µM | > 20 µM | – | – | – | – | – | – | – | –
CO[C@@]1(NC(=O)Cc2cccs2)C(=O)N2C(C(=O)O)=C(COC(N)=O)CS[C@@H]21 [CEFOXITIN] | > 20 µM | > 20 µM | >20 µM | 5 µM (≈ 2.14 µg/mL) | >20 µM | >20 µM | >20 µM | >20 µM | > 20 µM | – | – | – | – | – | – | – | –
OC(Cn1cncn1)(Cn1cncn1)c1ccc(F)cc1F [FLUCONAZOLE] | > 20 µM | > 20 µM | >20 µM | >20 µM | >20 µM | >20 µM | >20 µM | 2.5 µM (≈ 0.766 µg/mL) | > 20 µM | – | – | – | – | – | – | – | –
COc1cc(Cc2cnc(N)nc2N)cc(OC)c1OC [TRIMETHOPRIM] | – | 5 µM (≈ 1.45 µg/mL) | 5 µM (≈ 1.45 µg/mL) | 2.5 µM (≈ 0.726 µg/mL) | 5 µM (≈ 1.45 µg/mL) | 20 µM (≈ 5.81 µg/mL) | >20 µM | >20 µM | > 20 µM | > 20 µM | – | – | – | – | – | – | –
CC(=O)Oc1ccccc1C(=O)Nc1ncc([N+](=O)[O-])s1 [NITAZOXANIDE] | 8.59 µM | > 20 µM | >20 µM | >20 µM | >20 µM | >20 µM | >20 µM | >20 µM | > 20 µM | – | – | – | – | – | – | – | –
C[C@H]1COc2c(N3CCN(C)CC3)c(F)cc3c(=O)c(C(=O)O)cn1c23.C[C@H]1COc2c(N3CCN(C)CC3)c(F)cc3c(=O)c(C(=O)O)cn1c23.O [LEVOFLOXACIN] | – | ≤ 0.156 µM | 2.5 µM | <=0.1562 uM | 5 µM | 2.5 µM | 10 µM | >20 µM | > 20 µM | > 20 µM | – | – | – | – | – | – | –
CC(=O)NC[C@H]1CN(c2ccc(N3CCSCC3)c(F)c2)C(=O)O1 [SUTEZOLID] | – | 20 µM (≈ 7.07 µg/mL) | 5 µM (≈ 1.77 µg/mL) | >20 µM | >20 µM | >20 µM | >20 µM | >20 µM | > 20 µM | > 20 µM | – | – | – | – | – | – | –
CC(=O)N1CCN(c2ccc(OCC3COC(Cn4ccnc4)(c4ccc(Cl)cc4Cl)O3)cc2)CC1 (configuration not stated) [KETOCONAZOLE] | – | 20 µM (≈ 10.6 µg/mL) | >20 µM | >20 µM | >20 µM | >20 µM | >20 µM | 0.3125 µM (≈ 0.166 µg/mL) | 5 µM (≈ 2.66 µg/mL) | – | > 20 µM | – | – | – | – | – | –
COc1c(F)c(F)cc2c(=O)c(C(=O)O)cn(C3CC3)c12 | > 20 µM | 5 µM (≈ 1.48 µg/mL) | – | – | – | – | – | – | > 20 µM | – | – | 20 µM (≈ 5.9 µg/mL) | 2.5 µM (≈ 0.738 µg/mL) | > 20 µM | 10 µM (≈ 2.95 µg/mL) | > 20 µM | > 20 µM
Cc1cc(C2CCCCC2)n(O)c(=O)c1 [CICLOPIROX] | 3.98 µM | > 20 µM | – | – | – | – | – | – | 5 µM (≈ 1.04 µg/mL) | – | – | > 20 µM | > 20 µM | > 20 µM | > 20 µM | > 20 µM | 5 µM (≈ 1.04 µg/mL)
